46 compounds from EP3492483A1, “COMPOUNDS AND METHODS FOR TREATING BACTERIAL INFECTIONS” (The Washington University, priority 2009, dated 2011) can be followed below.

Where two headings read alike, the source gives them in different places.

This assay concerns the target T1, FimH (Escherichia coli, UniProt Q1R2J4).
T1 construct: endogenous in cells; host or cells: type 1 piliated UPEC bacteria
Briefly: cell-based. Particulars: for HAI Titer EC>90: Table 1; for activity in the hemagglutination assay (no activity up to concentration): glucosides; for EC90: read-out: HA 50% titer EC90. The arrangement: species or system UPEC.

Method: In some embodiments, activity of the compound is measured using hemmagglutination titer of guinea pig red blood cells. Hemagglutination of guinea pig red blood cells by type1 piliated UPEC is dependent upon FimH mannose binding ability and serial dilutions allow a quantitative analysis.
Biological activity against FimH was evaluated using a guinea pig red blood cell-based hemagglutination (HA) assay (ref) in which the concentration of the mannoside on reducing agglutination by 50% was used as the primary endpoint (50% HA titer).
Hemagglutination of guinea pig red blood cells by type1 piliated UPEC is dependent upon FimH mannose binding ability.

Take `Cc1ccc(OC2OC(CO)C(O)C(O)C2O)cc1` (centres unmarked) [Compound 20, 2-(hydroxymethyl)-6-(4-methylphenoxy)tetrahydropyran-3,4,5-triol]: the EC50 turned out to be 8 µM and the “HAI Titer EC>90” value turned out to be 8.000 µM.
Take `COC(=O)c1cccc(-c2ccc(O[C@@H]3O[C@H](CO)[C@@H](O)[C@H](O)[C@H]3O)cc2)c1` [Compound 11b]: the “activity in the hemagglutination assay (no activity up to concentration)” value is more than 2.5 mM.
As to `OC[C@H]1O[C@H](Oc2ccc(-c3ccncc3)cc2)[C@@H](O)[C@@H](O)[C@@H]1O` [Compound 8h], the EC90 worked out at 2 µM.
Turning to `OCC1OC(Oc2ccccc2Cl)C(O)C(O)C1O` (centres unmarked) [Compound 23, 2-(2-chlorophenoxy)-6-(hydroxymethyl)tetrahydropyran-3,4,5-triol], the EC50 worked out at 4 µM, the “improvement in potency relative to parent phenyl mannoside 3a” value was “greater than 5 fold” and the “HAI Titer EC>90” value stood at 4.000 µM.
Regarding `O=C1Cc2cc(O[C@H]3O[C@H](CO)[C@@H](O)[C@H](O)[C@@H]3O)ccc2O1` [Compound 7a], the EC90 stood at 8 µM.
In the case of `COc1cccc(-c2ccc(O[C@H]3O[C@H](CO)[C@@H](O)[C@H](O)[C@@H]3O)cc2)c1` [Compound 14n], the concentration for an effect of 90% (EC90) was 1.5 µM.
Turning to `CC(=O)Nc1ccccc1OC1OC(CO)C(O)C(O)C1O` (centres unmarked) [Compound 3, N-[2-[3,4,5-trihydroxy-6-(hydroxymethyl)tetrahydropyran-2-yl]oxyphenyl]acetamide], the “HAI Titer EC>90” value is 125.000 µM.
Turning to `CNS(=O)(=O)c1cccc(-c2ccc(O[C@H]3O[C@H](CO)[C@@H](O)[C@H](O)[C@@H]3O)cc2)c1` [Compound 14r], the EC90 amounted to 1 µM.
As to `OCC1OC(Oc2ccc(Br)cc2)C(O)C(O)C1O` (centres unmarked) [Compound 25, 2-(4-bromophenoxy)-6-(hydroxymethyl)tetrahydropyran-3,4,5-triol], the “HAI Titer EC>90” value worked out at 32.000 µM.
Turning to `OCC1OC(Oc2cccc(Cl)c2)C(O)C(O)C1O` (centres unmarked) [Compound 24, 2-(3-chlorophenoxy)-6-(hydroxymethyl)tetrahydropyran-3,4,5-triol], the EC50 came to 8 µM and the “HAI Titer EC>90” value is 8.000 µM.
Turning to “2-(4-chlorophenoxy)-6-(hydroxymethyl)tetrahydropyran-3,4,5-triol [Compound 22]”, the “increase in activity relative to 14a” value is approximately 8 fold and the “HAI Titer EC>90” value stood at 32.000 µM. Moreover, the EC50 (Table 10, read-out: HA 50% Titer) was 32 µM. The “increase in avidity relative to the expected potency of 500 nM” value (based on two monomeric units of 14a) is listed as 4 fold. The EC50 (read-out: HA titer) stood at 0.13 µM.
Regarding `OCc1cccc(-c2ccc(O[C@H]3O[C@H](CO)[C@@H](O)[C@H](O)[C@@H]3O)cc2)c1` [Compound 14h], the 90% effect concentration (EC90) came out at 3 µM.
As for `O=C(O)c1cccc(O[C@H]2O[C@H](CO)[C@@H](O)[C@H](O)[C@@H]2O)c1` [Compound 3l], the EC50 was 60 µM and the “lost potency relative to matched pair methyl ester 3j” value amounted to 10 fold.
`NC(=O)c1cccc(OC2OC(CO)C(O)C(O)C2O)c1` (centres unmarked) [Compound 15, 3-[3,4,5-trihydroxy-6-(hydroxymethyl)tetrahydropyran-2-yl]oxybenzamide]: the EC50 was determined as 16 µM and the “HAI Titer EC>90” value worked out at 16.000 µM.
`CCc1ccc(OC2OC(CO)C(O)C(O)C2O)cc1` (centres unmarked) [Compound 17, 2-(4-ethylphenoxy)-6-(hydroxymethyl)tetrahydropyran-3,4,5-triol]: the “HAI Titer EC>90” value was determined as 23.000 µM.
On to `O=C(O)c1cc(C(=O)O)cc(-c2ccc(O[C@H]3O[C@H](CO)[C@@H](O)[C@H](O)[C@@H]3O)cc2)c1` [Compound 45, 5-[4-[(2R,3S,4S,5S,6R)-3,4,5-Trihydroxy-6-(hydroxymethyl)tetrahydropyran-2-yl]oxyphenyl]benzene-1,3-dicarboxylic acid], for which the EC90 is 2 µM.
Still for that read-out and setting: to `COC(=O)c1cc2cc(O[C@H]3O[C@H](CO)[C@@H](O)[C@H](O)[C@@H]3O)ccc2s1` [Compound 7d] belongs 2 µM; to `CNS(=O)(=O)c1ccccc1-c1ccc(O[C@H]2O[C@H](CO)[C@@H](O)[C@H](O)[C@@H]2O)cc1` [Compound 14q], 4 µM.
For `O=C(c1ccccc1)c1cccc(O[C@H]2O[C@H](CO)[C@@H](O)[C@H](O)[C@@H]2O)c1` [Compound 8d], the EC90 is 8 µM.
Turning to `COc1ccc(OC2OC(CO)C(O)C(O)C2O)cc1` (centres unmarked) [Compound 21, 2-(hydroxymethyl)-6-(4-methoxyphenoxy)tetrahydropyran-3,4,5-triol], the EC50 stood at 8 µM and the “HAI Titer EC>90” value came to 8.000 µM.
For the compound `NC(=O)c1ccccc1-c1ccc(O[C@H]2O[C@H](CO)[C@@H](O)[C@H](O)[C@@H]2O)cc1` [Compound 14u], the EC90 was 6 µM.
Still for that read-out and setting: for `N#Cc1ccc(-c2ccc(O[C@H]3O[C@H](CO)[C@@H](O)[C@H](O)[C@@H]3O)cc2)cc1` [Compound 14f] the value was 8 µM.
Regarding `COC(=O)c1ccc(OC2OC(CO)C(O)C(O)C2O)cc1` (centres unmarked) [Compound 7, methyl 4-[3,4,5-trihydroxy-6-(hydroxymethyl)tetrahydropyran-2-yl]oxybenzoate], the “HAI Titer EC>90” value came to 8.000 µM.
As for `OCc1ccc(-c2ccc(O[C@H]3O[C@H](CO)[C@@H](O)[C@H](O)[C@@H]3O)cc2)cc1` [Compound 14i], the EC90 worked out at 6 µM.
As for `OCc1ccccc1-c1ccc(O[C@H]2O[C@H](CO)[C@@H](O)[C@H](O)[C@@H]2O)cc1` [Compound 14g], the EC50 was 16 µM, the “less potent than meta analog 14h” value is on record as “over 5 fold” and the EC90 was determined as 16 µM.
Regarding `COC(=O)c1cccc(-c2ccc(O[C@H]3O[C@H](CO)[C@@H](O)[C@H](O)[C@H]3O)cc2)c1` [Compound 11a], the “activity in the hemagglutination assay (no activity up to concentration)” value was more than 2.5 mM.
For the compound `O=[N+]([O-])c1cccc(OC2OC(CO)C(O)C(O)C2O)c1` (centres unmarked) [Compound 12, 2-(hydroxymethyl)-6-(3-nitrophenoxy)tetrahydropyran-3,4,5-triol], the EC50 stood at 16 µM and the “HAI Titer EC>90” value was found to be 16.000 µM.
Turning to `CS(=O)(=O)Nc1ccccc1-c1ccc(O[C@H]2O[C@H](CO)[C@@H](O)[C@H](O)[C@@H]2O)cc1` [Compound 14o], the EC90 worked out at 12 µM.
Consider `O=[N+]([O-])c1ccc(COC2OC(CO)C(O)C(O)C2O)cc1` (centres unmarked) [Compound 13, 2-(hydroxymethyl)-6-[(4-nitrophenyl)methoxy]tetrahydropyran-3,4,5-triol], for which the EC50 was 60 µM; the “decrease in potency relative to matched pairs 3a and 3b” value amounted to 2 fold; the “HAI Titer EC>90” value worked out at 60.000 µM.
As for `OCC1OC(Oc2ccc3ccccc3c2)C(O)C(O)C1O` (centres unmarked) [Compound 28, 2-(hydroxymethyl)-6-(2-naphthyloxy)tetrahydropyran-3,4,5-triol], the “HAI Titer EC>90” value was determined as 6.000 µM.
On to `COC(=O)c1cc(OC2OC(CO)C(O)C(O)C2O)cc(C(=O)OC)c1` (centres unmarked) [Compound 10, dimethyl 5-[3,4,5-trihydroxy-6-(hydroxymethyl)tetrahydropyran-2-yl]oxybenzene-1,3-dicarboxylate], for which the “HAI Titer EC>90” value was 2.000 µM.
Take `OC[C@H]1O[C@H](Oc2ccc3ccccc3c2)[C@@H](O)[C@@H](O)[C@@H]1O` [Compound 7b]: the EC90 is 6 µM.
The same measure, in the same setting: to `OC[C@H]1O[C@H](Oc2ccc(-c3ccccc3O)cc2)[C@@H](O)[C@@H](O)[C@@H]1O` [Compound 14j] belongs 8 µM; to `N#Cc1cccc(-c2ccc(O[C@H]3O[C@H](CO)[C@@H](O)[C@H](O)[C@@H]3O)cc2)c1` [Compound 62, 3-[4-[(2R,3S,4S,5S,6R)-3,4,5-Trihydroxy-6-(hydroxymethyl)tetrahydropyran-2-yl]oxyphenyl]benzonitrile], 1 µM.
For `OCC1OC(Oc2cc(F)c(F)c(F)c2)C(O)C(O)C1O` (centres unmarked) [Compound 27, 2-(hydroxymethyl)-6-(3,4,5-trifluorophenoxy)tetrahydropyran-3,4,5-triol], the “HAI Titer EC>90” value amounted to 125.000 µM.
Turning to `COC(=O)c1ccc(-c2cccc(O[C@H]3O[C@H](CO)[C@@H](O)[C@H](O)[C@@H]3O)c2)cc1` [Compound 8b], the EC90 worked out at 6 µM.
On the same count and under the same terms, for `O=c1[nH]c2ccc(O[C@H]3O[C@H](CO)[C@@H](O)[C@H](O)[C@@H]3O)cc2o1` [Compound 7c] the value was 4 µM.
In the case of `CO[C@H]1O[C@H](CO)[C@@H](O)[C@H](O)[C@@H]1O` [Methylαman, reference compound], the EC50 (read-out: HA 50% titer) is more than 1000 µM.
For `CCCc1ccc(OC2OC(CO)C(O)C(O)C2O)cc1` (centres unmarked) [Compound 18, 2-(hydroxymethyl)-6-(4-propylphenoxy)tetrahydropyran-3,4,5-triol], the “HAI Titer EC>90” value turned out to be 15.000 µM.
Take `COC(=O)Cc1ccc(OC2OC(CO)C(O)C(O)C2O)cc1` (centres unmarked) [Compound 9, methyl 2-[4-[3,4,5-trihydroxy-6-(hydroxymethyl)tetrahydropyran-2-yl]oxyphenyl]acetate]: the EC50 is 30 µM and the “HAI Titer EC>90” value was determined as 30.000 µM.
Regarding `N#Cc1ccccc1-c1ccc(O[C@H]2O[C@H](CO)[C@@H](O)[C@H](O)[C@@H]2O)cc1` [Compound 14d], the EC90 is 2 µM.
In the case of `COC(=O)Cc1cc(OC2OC(CO)C(O)C(O)C2O)ccc1O` (centres unmarked) [Compound 11, methyl 2-[2-hydroxy-5-[3,4,5-trihydroxy-6-(hydroxymethyl)tetrahydropyran-2-yl]oxy-phenyl]acetate], the “HAI Titer EC>90” value is 15.000 µM.
On to `COC(=O)c1cc2ccc(O[C@H]3O[C@H](CO)[C@@H](O)[C@H](O)[C@@H]3O)cc2s1` [Compound 7e], for which the EC90 was 2 µM.
The same measure, in the same setting: for `OC[C@H]1O[C@H](Oc2ccc(-c3cccnc3)cc2)[C@@H](O)[C@@H](O)[C@@H]1O` [Compound 8g] the value was 2 µM.
Consider `OCC1OC(Oc2cc(C(F)(F)F)cc(C(F)(F)F)c2)C(O)C(O)C1O` (centres unmarked) [Compound 26, 2-[3,5-bis(trifluoromethyl)phenoxy]-6-(hydroxymethyl)tetrahydropyran-3,4,5-triol], for which the “HAI Titer EC>90” value amounted to 32.000 µM.
As to `N#Cc1ccccc1OC1OC(CO)C(O)C(O)C1O` (centres unmarked) [Compound 5, 2-[3,4,5-trihydroxy-6-(hydroxymethyl)tetrahydropyran-2-yl]oxybenzonitrile], the EC50 was 6 µM, the “improvement in potency relative to parent phenyl mannoside 3a” value is listed as “greater than 5 fold” and the “HAI Titer EC>90” value came out at 6.000 µM.
